Laboratory results as given in patent publication US7572606B1 (Nereus Pharmaceuticals, Inc., priority 2005, dated 2009).
pEC50: −log10 of the molar value. “And” between values parts separate entries of the source, which are not always exact repeats. Equal values may be shown once. Read-outs that look alike come from different tables or passages of the source.

Key:
B16-F10 = experiment: Cell growth inhibition, resazurin, 48 h; format: cell-based, mouse; details: B16-F10, 48 h drug exposure
Procedure: (§1) RPMI 8226 (CCL-155), HT-29 (HTB-38), and B16-F10 (CRL-6475) cells were purchased from ATCC. RPMI 8226 cells were maintained in RPMI 1640 media supplemented with 10% (v/v) FBS, 2 mM L-glutamine, 1 mM sodium pyruvate and Penicillin/Streptomycin at 100 IU/ml and 100 μg/ml, respectively. HT-29 cells were maintained in McCoys 5A supplemented with 10% (v/v) FBS, 2 mM L-glutamine, 1 mM sodium pyruvate, 1% (v/v) non-essential amino acids, 10 mM HEPES and Penicillin/Streptomycin at 100 IU/ml and 100 μg/ml, respectively. B16-F10 cells were maintained in DMEM supplemented with 10% (v/v) FBS, 2 mM L-glutamine, 10 mM HEPES and Penicillin/Streptomycin at 100 IU/ml and 100 μg/ml, respectively.
(§2) RPMI 8226 cells were seeded at 2×10^4 cells/well in 90 μl RPMI media containing 10% (v/v) FBS or 1% (v/v) FBS into 96 well black-walled, clear-bottom tissue culture plates. […] Formulae II-16, II-17 and Formula II-18 were serially diluted in media containing 1% or 10% FBS and added in triplicate to the test wells. […] The final concentration of Formula II-18 ranged from 2 μM to 630 pM.

HT-29 = experiment: Cell growth inhibition, resazurin, 48 h; format: cell-based, human; details: HT-29, 48 h drug exposure
Procedure: as §1, §2

MDA-MB-231 = experiment: Cell growth inhibition, resazurin, 48 h; format: cell-based, human; details: MDA-MB-231, 48 h drug exposure
NCI-H292 = experiment: Cell growth inhibition, resazurin, 48 h; format: cell-based, human; details: NCI-H292, 48 h drug exposure
OVCAR-3 = experiment: Cell growth inhibition, resazurin, 48 h; format: cell-based, human; details: Homo sapiens, OVCAR-3, 48 h drug exposure
[1] = biological target: T1, trypsin-like activity of rabbit muscle 20S proteasome (Oryctolagus cuniculus, UniProt G1SWK8); experiment: In vitro inhibition of 20S proteasome, Boc-LRR-AMC; format: biochemical
T1 construct: EC50 Trypsin-like; other: purified rabbit 20S proteasome, Boc-LRR-AMC; other: under the conditions tested
T1 sequence (G1SWK8 1-271): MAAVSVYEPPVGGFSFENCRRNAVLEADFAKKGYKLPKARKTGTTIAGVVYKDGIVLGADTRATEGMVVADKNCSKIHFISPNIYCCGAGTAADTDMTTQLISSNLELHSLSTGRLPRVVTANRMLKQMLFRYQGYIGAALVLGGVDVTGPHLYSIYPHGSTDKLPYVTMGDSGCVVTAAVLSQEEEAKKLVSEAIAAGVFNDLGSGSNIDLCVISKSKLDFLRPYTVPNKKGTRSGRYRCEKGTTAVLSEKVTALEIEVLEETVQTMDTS

[2] = system: NF-κB-mediated luciferase activity in HEK293 NF-κB/Luc cells; experiment: NF-κB-mediated luciferase reporter gene assay; format: cell-based, human; details: for pEC50: 6 h TNF-α stimulation; for luciferase activity upon TNF-α stimulation: pretreatment of NF-κB/Luc 293 cells
Procedure: The HEK293 NF-κB/luciferase reporter cell line is a derivative of the human embryonic kidney cell line (ATCC; CRL-1573) and carries a luciferase reporter gene under the regulation of 5×NF-κB binding sites. […] When performing the luciferase assay, the DMEM basal medium was replaced with phenol-red free DMEM basal medium and the G418 was omitted.
For NF-κB-mediated luciferase assays, HEK293 NF-κB/luciferase cells were seeded at 1.5×10^4 cells/well in 90 μl phenol-red free DMEM complete medium into Corning 3917 white opaque-bottom tissue culture plates. For Formulae II-2, II-4, II-5A and II-18, a 400 μM starting dilution was made in 100% DMSO and this dilution was used to generate an 8-point half log dilution series. […] For formula II-20, a 2.5 mM or 8 mM starting dilution was made in 100% DMSO and the final test concentrations ranged from 6.3 μM to 2.0 nM or 20 μM to 6.3 nM respectively. The plates were returned to the incubator for 1 hour. After 1 hr pretreatment, 10 μl of a 50 ng/ml TNF-α solution, prepared in the phenol-red free DMEM medium was added, and the plates were incubated for an additional 6 hours.
At the end of the TNF-α stimulation, 100 μl of Steady Lite HTS luciferase reagent (Packard Bioscience) was added to each well and the plates were left undisturbed for 10 min at room temperature before measuring the luciferase activity. The relative luciferase units (RLU) were measured by using a Fusion microplate fluorometer (Packard Bioscience).
NF-κB inducible luciferase activity was measured at 6 hours.

PC-3 = experiment: Cell growth inhibition, resazurin, 48 h; details: Homo sapiens, PC-3, 48 h, PC-3, 48 h drug exposure
[3] = biological target: caspase-like (PGPH) activity of rabbit muscle 20S proteasome (Oryctolagus cuniculus, UniProt A0A5F9DQW2); experiment: In vitro inhibition of 20S proteasome, Z-LLE-AMC
caspase-like (PGPH) activity of rabbit muscle 20S proteasome, sequence (A0A5F9DQW2 1-212): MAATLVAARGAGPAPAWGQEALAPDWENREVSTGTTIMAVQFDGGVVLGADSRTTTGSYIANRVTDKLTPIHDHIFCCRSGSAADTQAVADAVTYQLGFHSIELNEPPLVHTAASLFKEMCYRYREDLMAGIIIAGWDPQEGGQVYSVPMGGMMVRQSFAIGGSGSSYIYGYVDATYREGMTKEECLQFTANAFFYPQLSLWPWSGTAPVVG

[4] = biological target: T2, chymotrypsin-like activity of rabbit muscle 20S proteasome (Oryctolagus cuniculus, UniProt G1T4Q9); experiment: In vitro inhibition of 20S proteasome, suc-LLVY-AMC
T2 sequence (G1T4Q9 1-263): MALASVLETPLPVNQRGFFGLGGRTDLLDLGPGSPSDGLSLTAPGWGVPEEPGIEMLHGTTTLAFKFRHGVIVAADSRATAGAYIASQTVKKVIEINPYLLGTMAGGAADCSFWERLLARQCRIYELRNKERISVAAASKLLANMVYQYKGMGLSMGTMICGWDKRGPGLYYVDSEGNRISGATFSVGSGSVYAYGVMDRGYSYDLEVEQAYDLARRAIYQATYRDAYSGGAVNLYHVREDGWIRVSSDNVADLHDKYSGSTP

RPMI 8226 = experiment: Cell growth inhibition, resazurin, 48 h; details: RPMI 8226, 48 h drug exposure
Procedure: as §1, §2

U266 = experiment: Cell growth inhibition, resazurin, 48 h; format: cell-based, human; details: U266, 48 h drug exposure, read-out: EC50
MES-SA/Dx5 = experiment: Cell growth inhibition, resazurin, 48 h; details: MES-SA/Dx5, 48 h drug exposure
Procedure: (§3) Concentrations ranging from 6.32 μM to 2 nM were tested for II-2 and II-4.

HL-60/MX2 = experiment: Cell growth inhibition, resazurin, 48 h; details: Homo sapiens, HL60/MX2, 48 h, HL-60/MX2, 48 h drug exposure
Procedure: (§4) The DNA binding agent Mitoxantrone was included as a control, as HL-60/MX2 cells are reported to be resistant to this chemotherapeutic agent (Harker W. G. et al. 1989).
as §3

HL-60 = experiment: Cell growth inhibition, resazurin, 48 h; details: Homo sapiens, HL-60, 48 h, HL-60, 48 h drug exposure
Procedure: as §4, §3

## C[C@@]12OC(=O)[C@]1([C@@H](O)[C@H]1CCC[C@@H]3O[C@H]13)NC(=O)[C@@H]2CCCl [Formula II-5B]
B16-F10
  pEC50: 5.94
B16-F10; Mus musculus, B16-F10, 48 h
  pEC50: 5.90
HT-29
  pEC50: 5.92
MDA-MB-231
  pEC50: 6.02
NCI-H292; Homo sapiens, NCI-H292, 48 h
  pEC50: 6.00
NCI-H292
  pEC50: 5.90
OVCAR-3; OVCAR-3, 48 h
  pEC50: 5.88
[1]; under the conditions tested
  inhibition of the trypsin-like activity of the 20S proteasome: able to inhibit the trypsin-like activity
[2]; 1 h pretreatment
  pEC50: 6.55
[2]
  luciferase activity upon TNF-α stimulation: dose-dependent decrease of luciferase activity
PC-3
  pEC50: 5.75
[3]; read-out: EC50 Caspase-like, purified rabbit 20S proteasome, Z-LLE-AMC
  pEC50: 5.42 and 5.54
[4]
  pEC50: 7.06 to 7.89
[4]; read-out: EC50 Chymotrypsin-like, purified rabbit 20S proteasome, suc-LLVY-AMC
  pEC50: 7.07

## CC[C@H]1C(=O)N[C@@]2([C@@H](O)C3CCCCC3)C(=O)O[C@@]12C [Formula II-3]
HT-29; Homo sapiens, read-out: EC50
  pEC50: < 4.70
RPMI 8226; Homo sapiens, RPMI-8226, 48 h
  pEC50: < 4.70
U266; Homo sapiens, U-266, 48 h
  pEC50: < 4.70
MES-SA/Dx5; Homo sapiens, MES-SA/Dx5, 48 h
  pEC50: < 4.70
[1]
  inhibition of the trypsin-like activity of the 20S proteasome: able to inhibit the trypsin-like activity
[3]; read-out: EC50 Caspase-like
  pEC50: < 4.70

## C[C@@]12OC(=O)[C@]1([C@@H](O)C1CCCCC1)NC(=O)[C@@H]2CCBr [Formula II-4]
B16-F10; Mus musculus, B16-F10, 48 h, read-out: EC50
  pEC50: 6.79
OVCAR-3; read-out: EC50
  pEC50: < 5.20
RPMI 8226; Homo sapiens, RPMI-8226, 48 h
  pEC50: 7.24
RPMI 8226
  pEC50: 7.29
U266; Homo sapiens, U-266, 48 h
  pEC50: 7.47
U266
  pEC50: 7.41
MES-SA/Dx5; Homo sapiens, MES-SA/Dx5, 48 h
  pEC50: 6.75
MES-SA/Dx5
  pEC50: 7.03
HL-60/MX2
  pEC50: 7.01
HL-60
  pEC50: 6.84
[1]
  inhibition of the trypsin-like activity of the 20S proteasome: able to inhibit the trypsin-like activity
[2]; 1 h pretreatment, read-out: EC50
  pEC50: 7.06
[2]; Homo sapiens, HEK293, 1 h pretreatment, read-out: EC50
  pEC50: 7.17
[2]
  luciferase activity upon TNF-α stimulation: dose-dependent decrease of luciferase activity
[3]; read-out: EC50 Caspase-like (PGPH)
  pEC50: 6.07 and 6.20
